From US5556842A, “Method for viable preservation of lung grafts” (Senju Pharmaceutical Co., Ltd., priority 1994, dated 1996)

Legend:
[1] = Acute toxicity LD50; parameters: species or system rats; settings: rat, in vivo
[2] = system: lung graft (cardiac arrest donor lungs); experiment: Left-lung transplantation model with cardiac arrest donor lungs; pulmonary function parameters over 6 hours after transplantation; type: in vivo, adult mongrel dogs
From the text: The lung preserving effect of the lung graft preservative composition of this invention in the transplantation of cardiac arrest donor lungs was experimentally evaluated.
[Test substance] L-Ascorbyl DL-α-tocopheryl phosphate potassium (abbreviation: EPC-K) dissolved in modified Euro-Collins solution ^1)
[Method] The left-lung transplantation model was constructed in adult mongrel dogs and used. The donor was brought to cardiac standstill by intravenous administration of potassium chloride solution and allowed to stand at room temperature for 2 hours. Then, while Group I (n=3) was perfused with Euro-Collins solution, an organ preservative which is commonly used in lung transplantation, Group II (n=3) was perfused with the lung graft preservative composition of this invention, followed by preservation at 4° C. for 12 hours. After the lung was transplanted into the recipient, the right pulmonary artery and right main branchus were ligated and the pulmonary function parameters were determined over a period of 6 hours.

Cc1c(C)c2c(c(C)c1OP(=O)(O)OC1=C(O)[C@@H]([C@@H](O)CO)OC1=O)CCC(C)(CCCC(C)CCCC(C)CCCC(C)C)O2 (mixture of isomers) [EPC-K, L-Ascorbyl DL-α-tocopheryl phosphate potassium]
LD50 ([1]; iv, i.v. (rats)): ≥ 100 mg/kg | LD50 ([1]; po, p.o. (rats)): ≥ 5000 mg/kg | arterial blood carbon dioxide partial pressure (PaCO2) ([2]; 5 hours after lung transplantation, preserved at 4° C. for 12 hours, n=3): 32.4±20.9 mmHg | arterial blood oxygen partial pressure (PaO2) ([2]; 6 hours after lung transplantation, donor lung 2 h at room temperature after cardiac standstill, preserved at 4° C. for 12 hours, n=3): 460±94 mmHg | extravascular lung water (EVLW), indicator of pulmonary edema ([2]; FIG. 3, vs. Euro-Collins solution (control)): effective in inhibiting edema | pulmonary vascular resistance (PVR) ([2]; FIG. 5, vs. Euro-Collins solution (control)): inhibits the increase of pulmonary vascular resistance | pulmonary arterial pressure (PAP) ([2]; FIG. 6, vs. Euro-Collins solution (control)): inhibits pulmonary edema without increasing pulmonary vascular resistance | cardiac output (CO) ([2]; FIG. 7, vs. Euro-Collins solution (control)): exerts no adverse influence on the heart | pulmonary blood shunt fraction ([2]; after 1 and 2 hours, FIG. 4, vs. Euro-Collins solution (control)): pulmonary blood shunt inhibitory effect which is significant after 1 and 2 hours | arterial blood carbon dioxide partial pressure (PaCO2), effect in words ([2]; after 5 hours, vs. Group I (Euro-Collins solution), FIG. 2): remarkably effective | various parameters of pulmonary function ([2]; after blood reperfusion): very favorable effects on various parameters of pulmonary function | pulmonary blood shunt fraction, other time-points ([2]; time-points other than 1 and 2 hours, FIG. 4): This inhibitory effect was also noted at other time-points | arterial blood oxygen partial pressure (PaO2), other time-points ([2]; time-points other than 6 hours, vs. Group I (Euro-Collins solution), FIG. 1): Results in Favor of Group II were obtained at other time-points, too
